Experiment [1] deals with hematopoietic progenitors (CFU-GM). Description: Stem cell mobilisation, mice model (CFU-GM). It is filed as in vivo, mouse. As to conditions: C3H/HeJ mice, 5 mg/kg s.c. An excerpt: The aim of the study was to evaluate the ability of the compound of Example 1 and Example 2 to mobilize hematopoietic progenitors from mouse bone marrow to peripheral blood using in-vitro hematopoietic colony assays. In humans, accurate information about progenitor cell mobilization is provided by the colony forming unit granulocyte-monocyte (CFU-GM) assay or by determining the abundance of CD34(+) cells by FACS analysis (see ref. 10 below). In mice, CD34 is not a useful marker for stem cells; instead the CFU-GM is more commonly used (see ref. 11 below).
In order to assess the ability of the compounds of Example 1 and Example 2 to mobilize murine stem cells (CFU-GM) C3H/HeJ female mice (Jackson Laboratory) were injected s.c. with 5 mg/k, of the compounds of Example 1 and of Example 2 and as reference AMD3100 (Broxmeyer, et al, J Exp Med 201, 1307-1318), (currently undergoing Phase III clinical trials) for stem cell mobilisation. Peripheral blood samples from 5 animals per test group were collected at each time point and nucleated cell counts performed as standard assays.

The target of another experiment is T1, human CXCR4 (Homo sapiens, UniProt P61073).
T1 construct: expressed in transfected cells; host or cells: mouse pre-B cell line 300-19
Briefly: Ca2+ assay: CXCR4-antagonizing activity. It is filed as cell-based. As to conditions: mouse pre-B cell line 300-19 transfected with human CXCR4; calcium mobilization induced by 10 nM SDF-1; read-out: IC50 (nM) Ca2+ assay. As to the method:
2.2. Ca^2+− Assay: CXCR4-Antagonizing Activity of the Peptides.
Increases in intracellular calcium were monitored using a Flexstation 384 (Molecular Devices, Sunnyvale, Calif.) to assay the peptides for CXCR4 antagonism in a mouse pre-B cell line 300-19 stably transfected with human CXCR4 [see references 1, 2 and 3, below]. The cells were batch loaded with the Calcium 3 Assay kit (Molecular Devices) in assay buffer (Hanks Balanced salt solution, HBSS, 20 mM HEPES, pH 7.4, 0.1% BSA) for 1 h at room temperature and then 200,000 labeled cells were dispensed into black 96 well assays plates (Costar No. 3603). A 20-fold concentrated solution of peptide in assay buffer was added to the cells and the whole plate was centrifuged to settle the cells to the bottom of the wells. Calcium mobilization induced by 10 nM stromal-derived factor-1 (SDF-1) was measured in the Flexstation 384 (excitation, 485 […]) for 90 seconds. A maximal change in fluorescence response above baseline was used to calculate antagonist activity. The data for dose response curves (antagonist concentration versus % maximum response) were fitted to a four parameter logistic equation using SoftmaxPro 4.6 (Molecular Devices), from which IC50% values were calculated.
In general terms: A change in cytosolic calcium serves as a functional read-out for many receptors and channels.

A further experiment can be described thus: FIGS-Assay. It is filed as cell-based. As to conditions: 48 hours of co-cultivation; ONPG read out at 405 nm. The procedure:
The assay was performed according to ref. 5, below. Stock dilutions of the peptides (10 μM) were prepared by dissolving in […] at room temperature. Stock solutions were kept at +4° C., light protected. Working dilutions were prepared extemporaneously by serial dilution in Phosphate Buffered Saline (PBS) and added in a final volume of 10 μl directly to the cell cultures. After 48 hours of co-cultivation the cultures were rinsed with PBS and then exposed to glutaraldehyde/formaldehyde (0.2%/2%) in PBS for five minutes. For photometric quantification the fixed cultures were subsequently incubated with ortho-nitro-phenyl-galactopyranoside (ONPG) as a β-galactosidase substrate, which was enzymatically converted into the chromophore ortho-nitrophenol (ONP). The read out is directly obtained by measuring optical density of wells at 405 nm in an iEMS 96well-plate reader.
‘CCR5’ cells were cultured in DMEM medium with […] glucose, 10% fetal bovine serum (FBS), supplemented with 50 U/ml Penicillin and 50 μg/ml Streptomycin (Pen/Strept.). Hut/4-3 cells were maintained in RPMI medium, 10% FBS, supplemented with Pen/Strept. and 10 mM HEPES. HELA cells and CCRF-CEM cells were maintained in RPMI1640 plus 5% FBS, Pen/Strept and 2 mM L-Glutamine. Cos-7 cells were grown in DMEM medium with […] glucose supplemented with 10% FCS, Pen/Strept. and 2 mM L-Glutamine. […]

Positions of bridges follow the written chain, without caps; N, C: chain ends. Non-standard residues stand in square brackets, D forms with d. Residues, ends and D or L forms follow the SMILES beside them. Dab = NCC[C@H](N)C(=O)O

One compound from patent publication US11421001B2, “Template-fixed peptidomimetics” (UNIVERSITAET ZUERICH, priority 2007, dated 2022) can be followed below.

T1 sequence (P61073 whole entry): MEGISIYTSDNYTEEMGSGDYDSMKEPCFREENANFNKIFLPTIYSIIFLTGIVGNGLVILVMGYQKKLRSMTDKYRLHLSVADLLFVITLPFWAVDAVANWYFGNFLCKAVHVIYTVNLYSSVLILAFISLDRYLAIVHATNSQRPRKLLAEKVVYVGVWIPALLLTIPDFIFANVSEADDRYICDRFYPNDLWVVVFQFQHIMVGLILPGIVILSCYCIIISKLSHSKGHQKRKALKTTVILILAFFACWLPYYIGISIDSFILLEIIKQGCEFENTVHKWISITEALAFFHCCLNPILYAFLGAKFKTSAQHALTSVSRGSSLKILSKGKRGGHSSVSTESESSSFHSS

What is called IC50 is the concentration that inhibits the measured activity by half. `C[C@@H]1NC(=O)[C@H](CO)NC(=O)[C@@H]2CSSC[C@H](NC(=O)[C@H](Cc3ccc(O)cc3)NC(=O)[C@H](CCCNC(=N)N)NC(=O)[C@H](CCN)NC(=O)[C@H]3CCCN3C1=O)C(=O)N[C@@H](Cc1ccc(O)cc1)C(=O)N[C@@H](CCC(N)=O)C(=O)N[C@@H](CCCCN)C(=O)N1CCC[C@@H]1C(=O)N1CCC[C@H]1C(=O)N[C@@H](Cc1ccc(O)cc1)C(=O)N[C@@H](Cc1c[nH]cn1)C(=O)N[C@@H](Cc1ccc(O)cc1)C(=O)N2` [Example 2] (cyclo(YHYCSA[dP][Dab]RYCYQK[dP]P); disulfide 4-11): the “time of maximal effect on CFU-GM blood cell numbers” value in experiment [1] was 240 min. The “effect on CFU-GM blood cell numbers / progenitors over time” value in experiment [1] (compared to control mice) is given as “increased the CFU-GM blood cell numbers up to six hours post administration”. Further, the IC50 on human CXCR4 came to 4.1 nM; in the experiment “FIGS-Assay”, 24.7 nM.
